Numbered stars: 1 amine (or outer) side, 2 acyl side, 3 side chain; on linkers, the order of the positions; unused ones are H or OH. Bridge positions count the residues as written; N and C are the ends. Square brackets hold non-standard residues; d marks the D form. Peptide text beside a SMILES is read from it. * marks the point of attachment. hPhe(3-Cl-4-CF3) = N[C@@H](CCc1ccc(C(F)(F)F)c(Cl)c1)C(=O)O; X15 = O=C([C@H](CCc1cc(Cl)c(Cl)c(Cl)c1)N[*:1])[*:2]; hPhe(4-CF3) = N[C@@H](CCc1ccc(C(F)(F)F)cc1)C(=O)O; NMePhe(4-Cl) = CN[C@@H](Cc1ccc(Cl)cc1)C(=O)O; NMePhe(4-Me) = CN[C@@H](Cc1ccc(C)cc1)C(=O)O; NMedβ3hAla = C[C@H](CC(=O)[*:2])N(C)[*:1]; NMeGly(cPent) = CN[C@H](C(=O)O)C1CCCC1; NMeGly(cBu) = CN[C@H](C(=O)O)C1CCC1; NMeCha = CN[C@@H](CC1CCCCC1)C(=O)O; NMeChg = CN[C@H](C(=O)O)C1CCCCC1; NMeF = CN[C@@H](Cc1ccccc1)C(=O)O; NMeI = CC[C@H](C)[C@H](NC)C(=O)O; NMeD = CN[C@@H](CC(=O)O)C(=O)O; NMeL = CN[C@@H](CC(C)C)C(=O)O; NMeV = CN[C@H](C(=O)O)C(C)C; d(β3hA) = C[C@@H](N)CC(=O)O; NMeS = CN[C@@H](CO)C(=O)O; NMeA = CN[C@@H](C)C(=O)O; NMeAib = CNC(C)(C)C(=O)O; Piperidide = C1CCN(*)CC1; Ac5c = NC1(C(=O)O)CCCC1; Aze = O=C(O)[C@@H]1CCN1; Cyclobutyl = C1CC(*)C1; Sar = CNCC(=O)O
The molecules below were run against protein-protein interaction between Kras and SOS1 (biotin-tagged human Kras loaded with GDP, His-tagged human SOS1) (Homo sapiens (Human), UniProt P01116, G12D) (assay: Protein-protein interaction inhibition between Kras and SOS1 (KrasG12D-SOS PPI) using AlphaScreen). Details: AlphaScreen; biotin-tagged human Kras loaded with GDP, His-tagged human SOS1; read-out: KRAS G12D-SOS PPI IC50.
Format: biochemical

| Compound | IC50 |
| --- | --- |
| CC[C@H](C)[C@@H]1NC(=O)[C@H](C)N(C)C(=O)C[C@@H](C(=O)N2CCCCC2)N(C)C(=O)[C@H](C2CCCCC2)N(C)C(=O)C2(CCCC2)NC(=O)[C@@H]2CCCN2C(=O)[C@H](CCc2cc(Cl)c(Cl)c(Cl)c2)NC(=O)CN(C)C(=O)[C@H](CC2CCCCC2)N(C)C(=O)CN(C)C(=O)CN(C)C1=O [Compound 2059, (3S,9S,18S,21S,25S,28S,34S)-28-cyclohexyl-9-(cyclohexylmethyl)-7,10,13,16,21,22,26,29-octamethyl-18-[(1S)-1-methylpropyl]-25-(piperidine-1-carbonyl)-3-[2-(3,4,5-trichlorophenyl)ethyl]spiro[1,4,7,10,13,16,19,22,26,29,32-undecazabicyclo[32.3.0]heptatriacontane-31,1′-cyclopentane]-2,5,8,11,14,17,20,23,27,30,33-undecone] ([NMeA]I[Sar][Sar][NMeCha][Sar][X15]P[Ac5c][NMeChg][NMeD]-Piperidide; lactam N-11) | 0.96 nM |
| CC[C@H](C)[C@@H]1NC(=O)[C@H](C)N(C)C(=O)C[C@@H](C)NC(=O)[C@H](C2CCCC2)N(C)C(=O)C2(CCCC2)NC(=O)[C@@H]2CCCN2C(=O)[C@H](CCc2ccc(C(F)(F)F)c(Cl)c2)NC(=O)CN(C)C(=O)[C@H](Cc2ccc(C)cc2)N(C)C(=O)CN(C)C(=O)CN(C)C1=O [Compound 1485] (cyclo([Ac5c][NMeGly(cPent)][d(β3hA)][NMeA]I[Sar][Sar][NMePhe(4-Me)][Sar][hPhe(3-Cl-4-CF3)]P)) | 0.84 nM |
| CC[C@H](C)[C@@H]1NC(=O)[C@H](CC(C)C)N(C)C(=O)C[C@@H](C(=O)N2CCCCC2)N(C)C(=O)[C@H](C(C)C)N(C)C(=O)C2(CCCC2)NC(=O)[C@@H]2CCCN2C(=O)[C@H](CCc2ccc(C(F)(F)F)c(Cl)c2)NC(=O)CN(C)C(=O)[C@H](CC2CCCCC2)N(C)C(=O)[C@@H]2CCN2C(=O)[C@H](C2CCC2)N(C)C1=O [Compound 1554] ([NMeL]I[NMeGly(cBu)][Aze][NMeCha][Sar][hPhe(3-Cl-4-CF3)]P[Ac5c][NMeV][NMeD]-Piperidide; lactam N-11) | 200 nM |
| CC[C@H](C)[C@@H]1NC(=O)[C@H](C)N(C)C(=O)C[C@@H](C)N(C)C(=O)[C@H](CC(C)C)N(C)C(=O)[C@H](Cc2ccccc2)N(C)C(=O)[C@H](CC(C)C)NC(=O)[C@H](CCc2ccc(C(F)(F)F)cc2)NC(=O)CN(C)C(=O)[C@H](Cc2ccc(Cl)cc2)N(C)C(=O)CN(C)C(=O)CN(C)C1=O [Compound 927] (cyclo(I[Sar][Sar][NMePhe(4-Cl)][Sar][hPhe(4-CF3)]L[NMeF][NMeL][NMedβ3hAla][NMeA])) | 23 nM |
| CC[C@H](C)[C@@H]1NC(=O)[C@H](C)N(C)C(=O)C[C@@H](C)N(C)C(=O)[C@H](C2CCC2)N(C)C(=O)C(C)(C)N(C)C(=O)[C@@H]2CCCN2C(=O)[C@H](CCc2ccc(C(F)(F)F)c(Cl)c2)NC(=O)CN(C)C(=O)[C@H](CC2CCCCC2)N(C)C(=O)[C@@H]2CCN2C(=O)[C@H](C)N(C)C1=O [Compound 2157] (cyclo([Aze][NMeCha][Sar][hPhe(3-Cl-4-CF3)]P[NMeAib][NMeGly(cBu)][NMedβ3hAla][NMeA]I[NMeA])) | 6.9 nM |
| CC[C@H](C)[C@@H]1NC(=O)[C@H](CC(C)C)N(C)C(=O)C[C@@H](C(=O)N2CCCCC2)N(C)C(=O)[C@H]([C@@H](C)CC)N(C)C(=O)C2(CCCC2)NC(=O)[C@@H]2CCCN2C(=O)[C@H](CCc2ccc(C(F)(F)F)c(Cl)c2)NC(=O)CN(C)C(=O)[C@H](COC2CCC2)N(C)C(=O)[C@@H]2CCN2C(=O)[C@H](C)N(C)C1=O [Compound 885] ([NMeL]I[NMeA][Aze][NMeS](Cyclobutyl)[Sar][hPhe(3-Cl-4-CF3)]P[Ac5c][NMeI][NMeD]-Piperidide; lactam N-11) | 1.9 nM |
